From patent publication US20070059382A1 (Board of Regents, Univ. and Comm. College System of …, priority 2005, published 2007)
Where “and” joins values, the source holds several entries; their conditions need not be identical. Identical values can stand only once. Entries after “also recorded” stand apart in the source; their conditions may differ. Like-named read-outs stand apart in the source and are kept apart here.

Experiments:
LNCaP tumor = details: nude mice, 1.7 and 9.0 mgB/Kg/day; cited from earlier work
DU-145 cells = details: cited from earlier work
MCF-7 [1] = experiment: Cell attachment (reattachment after trypsin harvest)
[2] = tested on: cyclins A-E and MAPK proteins; details: cited from earlier work
ZR-75-1 [3] = experiment: Detachment of growing cells (attached and floating cells); format: cell-based, human; details: seven days, 0.5 to 10 mM boric acid
From the text: We quantified the attached and floating cells. The data is shown below in FIG. 7.

ZR-75-1 [4] = tested on: ZR-75-1
[5] = in vivo; cited from earlier work
DU-145 = details: cited from earlier work
[6] = humans, chronic (about 1 g of boric acid); cited from earlier work
ZR-75-1 [7] = experiment: Cell attachment (reattachment after trypsin harvest)
MCF-7 [8] = details: 1 mM
[9] = tested on: non-tumorigenic prostate cell lines; details: cited from earlier work
HeLa cells = experiment: Growth of HeLa cells (express the NaBC1 transporter); format: cell-based; details: 1 mM
PC-3 = details: cited from earlier work
LNCaP = details: cited from earlier work
[10] = in vivo; cited from earlier work; remark: listed apart in the source
[11] = treated three days, then boric acid removed

**Q.** For OB(O)O [boric acid], which “inhibition of LNCaP tumor growth” value (LNCaP tumor) is on record?
**A.** Its value is “about 30%”.

**Q.** What about the “adhesion, migration and invasion potential” value (DU-145 cells) of the same compound?
**A.** The value was “reduced”.

**Q.** And the “effect on cell attachment” value (MCF-7 [1]; MCF-7, 1 mM (Experiments 3, 4))?
**A.** Its value is “did not”.

**Q.** What about the “percentage of cells that had reattached” value (MCF-7 [1]; MCF-7, 30 min, 1 mM each compound) of the same compound?
**A.** The value was 53.5 ± 3.0%.

**Q.** And the “percentage of cells that had reattached” value (MCF-7 [1]; MCF-7, 60 min, 1 mM each compound)?
**A.** The value was 92.6 ± 9.1%.

**Q.** And the “percentage of cells that had reattached” value (MCF-7 [1]; MCF-7, 90 min, 1 mM each compound)?
**A.** The value was 105.7 ± 6.8%.

**Q.** What about the “percentage of cells that had reattached” value (MCF-7 [1]; MCF-7, 120 min, 1 mM each compound) of the same compound?
**A.** The value was 97.5 ± 4.1%.

**Q.** And the “change in cyclins A-E and MAPK proteins” value [2]?
**A.** The value was “dose-dependent reduction”.

**Q.** What about the “cell detachment / floating cells” value (ZR-75-1 [3]) of the same compound?
**A.** The value was “causing breast cancer cells to detach and undergo apoptosis; also recorded: cells were seen floating in the media”.

**Q.** What about the “growth inhibition” value (ZR-75-1 [4]; 1 mM) of the same compound?
**A.** The value was “sensitive; also recorded: growth inhibition; also recorded: very sensitive”.

**Q.** And the “time to resume normal growth rate after boric acid removal” value (ZR-75-1 [4]; [11])?
**A.** Its value is “about three”.

**Q.** And the “fraction excreted in the urine” value [5]?
**A.** Its value is “about 85%”.

**Q.** What about the half-life [5] of the same compound?
**A.** The half-life was “about 21 hrs”.

**Q.** And the “time to excretion in the urine after ingestion” value [5]?
**A.** The value was at most 24 h.

**Q.** And the “growth inhibition” value (DU-145)?
**A.** The value was “inhibits the growth”.

**Q.** What about the “growth inhibition” value (DU-145; listed as BA) of the same compound?
**A.** Its value is “sensitive”.

**Q.** And the “chronic intake with no adverse effects” value [6]?
**A.** Its value is 2.5 mg/kg/day.

**Q.** What about the “effect on cell attachment” value (ZR-75-1 [7]; ZR-75-1, 1 mM (Experiments 1, 2)) of the same compound?
**A.** Its value is “inhibit the attachment; also recorded: inhibited their reattachment”.

**Q.** What about the “effect on cell attachment” value (ZR-75-1 [7]; ZR-75-1, 1 mM (Experiments 1, 2), listed as BA) of the same compound?
**A.** Its value is “did not”.

**Q.** What about the “percentage of cells that had reattached” value (ZR-75-1 [7]; ZR-75-1, 30 min, 1 mM each compound) of the same compound?
**A.** The value was 24.5 ± 5.2%.

**Q.** What about the “percentage of cells that had reattached” value (ZR-75-1 [7]; ZR-75-1, 60 min, 1 mM each compound) of the same compound?
**A.** Its value is 74.1 ± 26.1%.

**Q.** And the “percentage of cells that had reattached” value (ZR-75-1 [7]; ZR-75-1, 90 min, 1 mM each compound)?
**A.** Its value is 98.2 ± 34.0%.

**Q.** What about the “percentage of cells that had reattached” value (ZR-75-1 [7]; ZR-75-1, 120 min, 1 mM each compound) of the same compound?
**A.** The value was 104.0 ± 16.1%.

**Q.** And the “growth inhibition” value (MCF-7 [8])?
**A.** Its value is “not growth inhibited; also recorded: no growth inhibition; also recorded: much less sensitive”.

**Q.** And the “growth inhibition” value [9]?
**A.** Its value is “not”.

**Q.** What about the “growth inhibition” value (HeLa cells) of the same compound?
**A.** Its value is “very little inhibition”.

**Q.** And the “growth inhibition” value (PC-3)?
**A.** Its value is “inhibits the growth”.

**Q.** And the “growth inhibition” value (PC-3; listed as BA)?
**A.** The value was “much less sensitive”.

**Q.** What about the “growth inhibition” value (LNCaP) of the same compound?
**A.** The value was “inhibits the growth”.

**Q.** What about the “growth inhibition” value (LNCaP; listed as BA) of the same compound?
**A.** The value was “much less sensitive”.

**Q.** And the “growth inhibition” value (SK-BR-3; 1 mM)?
**A.** The value was “growth inhibition”.

**Q.** And the “time to resume normal growth rate after boric acid removal” value (SK-BR-3; [11])?
**A.** The value was “about three”.

**Q.** Which “Tolerable Upper Intake Level (UL)” value [10] does the source give for [B] [boron] here?
**A.** Its value is 20 mg/day.

**Q.** Which results are given for [Cl][Mn][Cl] [MnCl2, reference compound]?
**A.** effect on cell attachment (MCF-7 [1]): stimulates attachment; percentage of cells that had reattached (MCF-7 [1]): 53.9 ± 12.3% and 69.4 ± 2.9% and 74.9 ± 3.6% and 81.5 ± 9.9%; effect on cell attachment (ZR-75-1 [7]): stimulates attachment; percentage of cells that had reattached (ZR-75-1 [7]): 42.6 ± 12.0% and 67.3 ± 12.0% and 70.2 ± 1.4% and 77.8 ± 13.6%
